Experimental data reported in US10981884B2, “Process for the preparation of epoprostenol sodium of enhanced stability” (CHINOIN GYÓGYSZER ÉS VEGYÉSZETI TERMÉKEK GYÁRA ZRT., priority 2016, dated 2021).
“And” between values parts separate entries of the source, which are not always exact repeats. Identical values can stand only once.

Experiments:
[1] = aqueous solution at physiological pH; cited from earlier work
[2] = Storage stability in deep-freezer (−20±5° C.), 6-oxo-PGF1alpha impurity content by HPLC; type: physicochemical; details: for 6-oxo-PGF1alpha content (HPLC): deep-freezer (−20 ± 5° C.), 4 mass % NaOH excess
Method: (§1) Based on these unexpected experimental results we modified our new technology, we dissolved the funnel-wet, crystalline epoprostenol sodium salt in water, to the aqueous solution we added 2M NaOH solution in such an amount that the product, after lyophilisation contains 4 mass % excess of sodium hydroxide. The stability of the epoprostenol Na prepared by this new method is excellent, it can be stored in deep-freezer (−20±5° C.) for at least 3 years.

[3] = Storage stability in refrigerator (5±3° C.), 6-oxo-PGF1alpha impurity content by HPLC; type: physicochemical; details: for 6-oxo-PGF1alpha content (HPLC): refrigerator (5 ± 3° C.), 4 mass % NaOH excess
Method: as §1, with “The” for “The stability of the”, “the” for “this”, “may” for “is excellent, it can”, “refrigerator (5±3°” for “deep-freezer (−20±5°”, “6 months (Table 3.).” for “3 years.”

[4] = Accelerated stability study of lyophilisates at room temperature in closed glass vessels, active ingredient content followed by HPLC; type: physicochemical; details: closed glass vessel
Method: We investigated the effect of the sodium hydroxide amount used for the salt formation on the stability of the acid-sensitive epoprostenol Na. For this purpose the excess alkali which may be present in the epoprostenol Na salt was removed with strongly acidic cation exchange DOWEX resin, to the aqueous solution of the salt not containing excess alkali, different amounts of sodium hydroxide were added and the obtained solutions were lyophilized. From the 1% aqueous lyophilisate solutions we measured the pH and started accelerated stability studies at room temperature, in closed glass vessels. The change of the active ingredient content of the stability samples was followed by HPLC after 0, 24, 48 and 144 hours. From the measured active ingredient contents decomposition rates of epoprostenol Na have been calculated (Table 1.).

[5] = −30° C., white powder; cited from earlier work
[6] = pH of 1% aqueous lyophilisate solution; type: physicochemical
Method: For this purpose the excess alkali which may be present in the epoprostenol Na salt was removed with strongly acidic cation exchange DOWEX resin, to the aqueous solution of the salt not containing excess alkali, different amounts of sodium hydroxide were added and the obtained solutions were lyophilized. From the 1% aqueous lyophilisate solutions we measured the pH and started accelerated stability studies at room temperature, in closed glass vessels.

[7] = Storage stability in deep-freezer (−20±5° C.), 6-oxo-PGF1alpha impurity content by HPLC; type: physicochemical; details: 4-5-6% NaOH excesses compared

SMILES: CCCCC[C@H](O)/C=C/[C@@H]1[C@H]2C/C(=C/CCCC(=O)O)O[C@H]2C[C@H]1O [prostacyclin]
- half-life [1]: 3 to 4 min

SMILES: CCCCC[C@H](O)/C=C/[C@@H]1[C@H]2C/C(=C/CCCC(=O)[O-])O[C@H]2C[C@H]1O.[Na+] [Epoprostenol Na, (5Z,9α,11α,13E,15S)-6,9-Epoxy-11,15-dihydroxyprosta-5,13-dien-1-acid sodium salt]
- 6-oxo-PGF1alpha content (HPLC) ([2]; month 0): 0.2 mass %
- 6-oxo-PGF1alpha content (HPLC) ([2]; month 1): 0.2 mass %
- 6-oxo-PGF1alpha content (HPLC) ([2]; month 3): 0.2 mass %
- 6-oxo-PGF1alpha content (HPLC) ([2]; month 6): 0.2 mass %
- 6-oxo-PGF1alpha content (HPLC) ([2]; month 9): 0.2 mass %
- 6-oxo-PGF1alpha content (HPLC) ([2]; month 12): 0.2 mass %
- 6-oxo-PGF1alpha content (HPLC) ([2]; month 18): 0.2 mass %
- 6-oxo-PGF1alpha content (HPLC) ([2]; month 24): 0.2 mass %
- 6-oxo-PGF1alpha content (HPLC) ([2]; month 36): 0.2 mass %
- storage time (can be stored) ([2]; deep-freezer (−20±5° C.), lyophilisate with 4 mass % NaOH excess): at least 3 years
- 6-oxo-PGF1alpha content (HPLC) ([3]; month 0): 0.2 mass %
- 6-oxo-PGF1alpha content (HPLC) ([3]; month 1): 0.3 mass %
- 6-oxo-PGF1alpha content (HPLC) ([3]; month 3): 0.4 mass %
- 6-oxo-PGF1alpha content (HPLC) ([3]; month 6): 0.2 mass %
- storage time (may be stored) ([3]; refrigerator (5±3° C.), lyophilisate with 4 mass % NaOH excess): at least 6 months
- PGI2Na decomposition ([4]; 0.25 mass % NaOH added, sodium salt): 34.9 %/month and 34.6 %/month
- PGI2Na decomposition ([4]; 2.5 mass % NaOH added, sodium salt): 10.9 %/month and 10.6 %/month
- PGI2Na decomposition ([4]; 3.0 mass % NaOH added): 8.8 %/month
- PGI2Na decomposition ([4]; 4.0 mass % NaOH added): 4.5 %/month
- PGI2Na decomposition ([4]; 5.0 mass % NaOH added): 1.7 %/month
- PGI2Na decomposition ([4]; 5.5 mass % NaOH added): 1.3 %/month
- PGI2Na decomposition ([4]; 6.0 mass % NaOH added): 1.7 %/month
- PGI2Na decomposition ([4]; 7.5 mass % NaOH added): 3.1 %/month
- PGI2Na decomposition ([4]; 12.5 mass % NaOH added): 3.5 %/month
- time lyophilisate remained stable [5]: at least two
- pH (1% aqueous solution) ([6]; lyophilisate with 0.25 mass % NaOH added, sodium salt): 9.98 and 10.14
- pH (1% aqueous solution) ([6]; lyophilisate with 2.5 mass % NaOH added): 11.64
- pH (1% aqueous solution) ([6]; lyophilisate with 3.0 mass % NaOH added): 11.70
- pH (1% aqueous solution) ([6]; lyophilisate with 4.0 mass % NaOH added): 11.78
- pH (1% aqueous solution) ([6]; lyophilisate with 5.0 mass % NaOH added): 11.86
- pH (1% aqueous solution) ([6]; lyophilisate with 5.5 mass % NaOH added): 11.90
- pH (1% aqueous solution) ([6]; lyophilisate with 6.0 mass % NaOH added): 11.92
- pH (1% aqueous solution) ([6]; lyophilisate with 7.5 mass % NaOH added): 12.00
- pH (1% aqueous solution) ([6]; lyophilisate with 12.5 mass % NaOH added): 12.15
- stability in the storage praxis [7]: equally good
